These results are taken from ChEMBL document CHEMBL1201862, “PubChem BioAssay data set” (2004).

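Tested at 5 concentrations; 48 h exposure; 96-well plates; endpoints linearly interpolated, else capped at highest concentration. GI50: concentration for 50% inhibition of growth.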 Activity calls are given as the source filed them. Rule as the data show it: active = GI50 up to about 1.1 µM and inactive = higher.

Among the test systems are BT-549; RXF 393; NCI-H23; MOLT-4; HOP-92; PC-3; Hs-578T; SK-OV-3; HCC 2998; OVCAR-5; NCI/ADR-RES; CAKI-1; NCI-H226; LOX IMVI; SF-539; COLO 205; NCI-H522; MDA-MB-231; HT-29.
Common to all, as to experiment: inhibition of tumour cell growth, NCI panel, 48 h

On to `COC(=O)c1ccccc1C1CN=NC12Cc1ccc(C)cc1C2=O` (centres undefined), for which the GI50 with BT-549 is 47.9 µM (inactive); in the experiment with RXF 393, 97.7 µM (inactive); in the experiment on NCI-H23, 59 µM (inactive); in the experiment on MOLT-4, 47.2 µM (inactive); in the experiment with HOP-92, 38.9 µM (inactive); in the experiment with PC-3, 37.1 µM (inactive). Moreover, the GI50 is 41.5 µM (inactive) in the experiment on Hs-578T; > 100 µM (inactive) in the experiment with SK-OV-3; 64.7 µM (inactive) in the experiment on HCC 2998; > 100 µM (inactive) in the experiment on OVCAR-5; 36.6 µM (inactive) in the experiment with NCI/ADR-RES; 84.5 µM (inactive) in the experiment on CAKI-1. Besides, the GI50 with NCI-H226 is 73.1 µM (inactive); in the experiment on LOX IMVI, 48.1 µM (inactive); with SF-539 it was > 100 µM (inactive); with COLO 205, 60.8 µM (inactive); in the experiment with NCI-H522 it was 30.5 µM (inactive); with MDA-MB-231, > 100 µM (inactive). In addition, in the experiment on HT-29, the GI50 was 42.6 µM (inactive).
Consider `CC(Oc1ccccc1Cl)C(=O)NN1C(=O)CSC1c1ccccc1` (centres undefined), for which the GI50 in the experiment on BT-549 is > 100 µM (inactive); in the experiment with RXF 393, 61.2 µM (inactive); in the experiment with NCI-H23, > 100 µM (inactive); in the experiment with MOLT-4, 29.8 µM (inactive); in the experiment on HOP-92, 57.3 µM (inactive); with PC-3 it was > 100 µM (inactive). For the same molecule, the GI50 with Hs-578T, with SK-OV-3, in the experiment with HCC 2998, with OVCAR-5, in the experiment with NCI/ADR-RES and with CAKI-1 was > 100 µM (inactive) in each case. For the same molecule, the GI50 was > 100 µM (inactive) in the experiment on NCI-H226; > 100 µM (inactive) with LOX IMVI; > 100 µM (inactive) with SF-539; > 100 µM (inactive) in the experiment on COLO 205; 64.6 µM (inactive) with NCI-H522; > 100 µM (inactive) in the experiment on MDA-MB-231. Besides, the GI50 in the experiment with HT-29 was > 100 µM (inactive).
Regarding `CC1(C)CC(=O)c2[nH]c3ccccc3c2CC(=O)NCCc2cn1cn2`, the GI50 with BT-549 was > 100 µM (inactive); with RXF 393, 73.8 µM (inactive); with NCI-H23 it was > 100 µM (inactive); in the experiment with MOLT-4, > 100 µM (inactive); in the experiment on HOP-92, 36.5 µM (inactive); with PC-3 it was > 100 µM (inactive). Further, the GI50 in the experiment on Hs-578T was 33.5 µM (inactive); in the experiment with SK-OV-3, > 100 µM (inactive); in the experiment with HCC 2998, > 100 µM (inactive); with OVCAR-5 it was > 100 µM (inactive); with NCI/ADR-RES, > 100 µM (inactive); in the experiment with CAKI-1 it was > 100 µM (inactive). Also, the GI50 with NCI-H226 was > 100 µM (inactive); with LOX IMVI, > 100 µM (inactive); in the experiment on SF-539, > 100 µM (inactive); in the experiment on COLO 205, > 100 µM (inactive); in the experiment on NCI-H522, > 100 µM (inactive); in the experiment on MDA-MB-231 it was 88.1 µM (inactive). In the experiment on HT-29, the GI50 is > 100 µM (inactive).
With `CC1=C(C)CC2C(=O)N(c3cc(C(C)(C)C)ccc3C(C)(C)C)C(=O)C2C1` (centres undefined), the GI50 in the experiment with BT-549 is 24.7 µM (inactive); in the experiment with RXF 393, 23.8 µM (inactive); in the experiment with NCI-H23, 94.4 µM (inactive); with MOLT-4 it was > 100 µM (inactive); in the experiment on HOP-92, 26.2 µM (inactive); with PC-3, 62.2 µM (inactive). In addition, the GI50 in the experiment on Hs-578T is 5.82 µM (inactive); with SK-OV-3 it was 58.3 µM (inactive); with HCC 2998, 52.6 µM (inactive); in the experiment on OVCAR-5, > 100 µM (inactive); in the experiment with NCI/ADR-RES, > 100 µM (inactive); in the experiment on CAKI-1, > 100 µM (inactive). For the same molecule, the GI50 in the experiment on NCI-H226 is > 100 µM (inactive); with LOX IMVI, > 100 µM (inactive); with SF-539, 78.3 µM (inactive); with COLO 205, > 100 µM (inactive); with NCI-H522, 8.2 µM (inactive); in the experiment with MDA-MB-231, > 100 µM (inactive). Also, the GI50 in the experiment on HT-29 was > 100 µM (inactive).
Take `C=C1[C@H](OC(=O)C(C)C)[C@]23CC4(O)[C@@H]5[C@@]6(C)CCC[C@]57C([C@@H]2C[C@@]1(O)[C@H](O)[C@@H]73)N4C6`: the GI50 with BT-549, in the experiment on RXF 393, with NCI-H23, in the experiment on MOLT-4, in the experiment on HOP-92 and with PC-3 was > 100 µM (inactive) in each case. The GI50 in the experiment with Hs-578T is > 100 µM (inactive); in the experiment with SK-OV-3, 98.6 µM (inactive); with HCC 2998, 27 µM (inactive); in the experiment with OVCAR-5, > 100 µM (inactive); with NCI/ADR-RES it was > 100 µM (inactive); with CAKI-1, > 100 µM (inactive). In addition, the GI50 with NCI-H226, with LOX IMVI, in the experiment on SF-539, in the experiment with COLO 205, in the experiment with NCI-H522 and with MDA-MB-231 was > 100 µM (inactive) in each case. In the experiment with HT-29, the GI50 was > 100 µM (inactive).
`Cc1ccc(-c2nc(N/N=C/c3ccc(O)cc3)c3ccccc3n2)cc1`: the GI50 in the experiment on BT-549 was 28 µM (inactive); with RXF 393 it was 21 µM (inactive); in the experiment on NCI-H23 it was 7.31 µM (inactive); in the experiment on MOLT-4, 20.5 µM (inactive); in the experiment on HOP-92 it was 32.4 µM (inactive); in the experiment with PC-3, 9.06 µM (inactive). The GI50 with Hs-578T was 35.7 µM (inactive); with SK-OV-3, 20.3 µM (inactive); with HCC 2998 it was 14.1 µM (inactive); in the experiment with OVCAR-5, 20.3 µM (inactive); in the experiment on NCI/ADR-RES, 20.4 µM (inactive); in the experiment with CAKI-1 it was 10.8 µM (inactive). For the same molecule, the GI50 is 21.5 µM (inactive) in the experiment on NCI-H226; 13.2 µM (inactive) in the experiment with LOX IMVI; 27.3 µM (inactive) with SF-539; 23.4 µM (inactive) with COLO 205; 14.2 µM (inactive) in the experiment on NCI-H522; 19.4 µM (inactive) in the experiment with MDA-MB-231. Besides, the GI50 in the experiment with HT-29 was 27.7 µM (inactive).
On to `O=[N+]([O-])c1ccc(/N=N/N2CCCC2)cc1`, for which the GI50 with BT-549, in the experiment on RXF 393, in the experiment on NCI-H23, in the experiment on MOLT-4, with HOP-92 and with PC-3 was > 100 µM (inactive) each time. Further, the GI50 in the experiment with Hs-578T was > 100 µM (inactive); in the experiment on SK-OV-3, > 100 µM (inactive); in the experiment on HCC 2998 it was 4.38 µM (inactive); in the experiment on OVCAR-5 it was > 100 µM (inactive); with NCI/ADR-RES, > 100 µM (inactive); with CAKI-1, > 100 µM (inactive). The GI50 in the experiment on NCI-H226, with LOX IMVI, in the experiment with SF-539, with COLO 205, in the experiment with NCI-H522 and with MDA-MB-231 was > 100 µM (inactive) throughout.
For the molecule `C/C=C/[C@H]1O[C@@](OC)([C@@H](C)[C@H](O)[C@H](C)[C@H]2OC(=O)/C(OC)=C/C(C)=C/[C@@H](C)[C@@H](O)[C@@H](C)[C@@H](O)[C@H](C)C/C(C)=C/C=C/[C@@H]2OC)CC(OC2CC(O)C(OC(N)=O)C(C)O2)[C@@H]1C` (some centres undefined), the GI50 was < 0.01 µM (active) in the experiment on BT-549; 2.39 µM (inactive) in the experiment on RXF 393; 1.99 µM (inactive) in the experiment on NCI-H23; < 0.01 µM (active) in the experiment with MOLT-4; 0.103 µM (active) in the experiment with HOP-92; < 0.01 µM (active) with PC-3. Moreover, the GI50 was 2.08 µM (inactive) in the experiment with Hs-578T; 7.48 µM (inactive) in the experiment with SK-OV-3; < 0.01 µM (active) in the experiment on HCC 2998; 1.82 µM (inactive) in the experiment with OVCAR-5; 0.0953 µM (active) with NCI/ADR-RES; < 0.01 µM (active) in the experiment with CAKI-1. In addition, the GI50 in the experiment with NCI-H226, in the experiment with LOX IMVI, in the experiment with SF-539, in the experiment on COLO 205, with NCI-H522 and with MDA-MB-231 was < 0.01 µM (active) each time. Further, the GI50 with HT-29 was < 0.01 µM (active).
Turning to `N#CC(c1ccc(O)cc1)N1CCN(C(C#N)c2ccc(O)cc2)CC1` (centres undefined), the GI50 with BT-549 was > 72.3 µM (inactive); with RXF 393, 33.9 µM (inactive); in the experiment on NCI-H23 it was > 100 µM (inactive); with MOLT-4, > 100 µM (inactive); in the experiment on HOP-92, 23.3 µM (inactive); in the experiment on PC-3, > 100 µM (inactive). For the same molecule, the GI50 with Hs-578T is 27.7 µM (inactive); with SK-OV-3, 28.6 µM (inactive); in the experiment with HCC 2998, > 100 µM (inactive); in the experiment on OVCAR-5, > 100 µM (inactive); with NCI/ADR-RES it was 40.8 µM (inactive); in the experiment with CAKI-1, > 100 µM (inactive). Besides, the GI50 in the experiment with NCI-H226 is 34.3 µM (inactive); in the experiment on LOX IMVI, > 100 µM (inactive); with SF-539, 34.7 µM (inactive); in the experiment with COLO 205, > 100 µM (inactive); in the experiment on NCI-H522, > 100 µM (inactive); in the experiment on MDA-MB-231 it was 21.9 µM (inactive). The GI50 in the experiment with HT-29 was > 100 µM (inactive).
For the molecule `O=C(/C=C/c1ccc(O)c(O)c1)OCCOC(=O)/C=C/c1ccc(O)c(O)c1`, the GI50 was 34.4 µM (inactive) with BT-549; 22.6 µM (inactive) in the experiment on RXF 393; 29.4 µM (inactive) in the experiment on NCI-H23; 20.9 µM (inactive) in the experiment with MOLT-4; 42.2 µM (inactive) in the experiment with HOP-92; 32 µM (inactive) with PC-3. The GI50 in the experiment on Hs-578T was 39.4 µM (inactive); in the experiment on SK-OV-3, 24.2 µM (inactive); in the experiment with HCC 2998 it was 31.8 µM (inactive); in the experiment on OVCAR-5 it was 14.2 µM (inactive); in the experiment with NCI/ADR-RES, 39.8 µM (inactive); in the experiment on CAKI-1 it was 39.4 µM (inactive). For the same molecule, the GI50 in the experiment on NCI-H226 was 30.1 µM (inactive); in the experiment with LOX IMVI, 28.6 µM (inactive); in the experiment with SF-539, 22.4 µM (inactive); in the experiment with COLO 205, 19.5 µM (inactive); with NCI-H522, 20 µM (inactive); in the experiment on MDA-MB-231, 38 µM (inactive). Moreover, the GI50 in the experiment on HT-29 was 21.4 µM (inactive).
